Laboratory results taken from PubChem BioAssay AID1259407 (Chemical Carcinogenesis Research Information System (CCRIS), 2018).
Activity calls are given as the source filed them. The rule behind the calls is not given here.

Test system: CCRIS mutagenicity, Ames/micronucleus/aberration tests
Assay: CCRIS mutagenicity studies

SMILES: O=C(O)[C@H]1OC(Oc2c3ccccc3c3ccc4cccc5ccc2c3c54)[C@H](O)[C@@H](O)[C@@H]1O (stereo partly drawn)
- mutagenic call (Test System: AMES SALMONELLA TYPHIMURIUM, Strain/Indicator: TA98, Metabolic Activation: NONE, Method: PREINCUBATION): inactive; negative
- mutagenic call (Test System: AMES SALMONELLA TYPHIMURIUM, Strain/Indicator: TA98, Metabolic Activation: RAT, LUNG, S-9, Method: PREINCUBATION): inactive; negative

SMILES: O=C(CCCCl)N=c1sn(C(=O)CCCCl)c2ccc([N+](=O)[O-])cc12
- mutagenic call (Test System: AMES SALMONELLA TYPHIMURIUM, Strain/Indicator: TA100, Metabolic Activation: S-9, Method: STANDARD PLATE): active; positive

SMILES: CC(=O)OC(C)CN(CC(C)OC(C)=O)N=O (stereo not drawn)
- mutagenic call (Test System: AMES SALMONELLA TYPHIMURIUM, Strain/Indicator: TA100, Metabolic Activation: HAMSTER, LIVER, S-9, 3-METHYLCHOLANTHRENE, Method: PREINCUBATION): active; positive
- mutagenic call (Test System: AMES SALMONELLA TYPHIMURIUM, Strain/Indicator: TA100, Metabolic Activation: HAMSTER, LIVER, S-9, PHENOBARBITAL, Method: PREINCUBATION): active; positive
- mutagenic call (Test System: AMES SALMONELLA TYPHIMURIUM, Strain/Indicator: TA100, Metabolic Activation: HAMSTER, LIVER, S-9, Method: PREINCUBATION): active; positive
- mutagenic call (Test System: AMES SALMONELLA TYPHIMURIUM, Strain/Indicator: TA100, Metabolic Activation: HUMAN, LIVER, S-9, Method: PREINCUBATION): inactive; negative
- mutagenic call (Test System: AMES SALMONELLA TYPHIMURIUM, Strain/Indicator: TA100, Metabolic Activation: MONKEY, LIVER, S-9, Method: PREINCUBATION): active; positive
- mutagenic call (Test System: AMES SALMONELLA TYPHIMURIUM, Strain/Indicator: TA100, Metabolic Activation: MOUSE, LIVER, S-9, 3-METHYLCHOLANTHRENE, Method: PREINCUBATION): active; positive
- mutagenic call (Test System: AMES SALMONELLA TYPHIMURIUM, Strain/Indicator: TA100, Metabolic Activation: MOUSE, LIVER, S-9, PHENOBARBITAL, Method: PREINCUBATION): active; positive
- mutagenic call (Test System: AMES SALMONELLA TYPHIMURIUM, Strain/Indicator: TA100, Metabolic Activation: MOUSE, LIVER, S-9, Method: PREINCUBATION): active; positive
- mutagenic call (Test System: AMES SALMONELLA TYPHIMURIUM, Strain/Indicator: TA100, Metabolic Activation: NONE, Method: PREINCUBATION): inactive; negative
- mutagenic call (Test System: AMES SALMONELLA TYPHIMURIUM, Strain/Indicator: TA100, Metabolic Activation: RABBIT, LIVER, S-9, Method: PREINCUBATION): active; positive
- mutagenic call (Test System: AMES SALMONELLA TYPHIMURIUM, Strain/Indicator: TA100, Metabolic Activation: RAT, LIVER, CYTOSOL, PCB, Method: PREINCUBATION): inactive; negative
- mutagenic call (Test System: AMES SALMONELLA TYPHIMURIUM, Strain/Indicator: TA100, Metabolic Activation: RAT, LIVER, MICROSOMES AND CYTOSOL, PCB, Method: PREINCUBATION): active; positive
- mutagenic call (Test System: AMES SALMONELLA TYPHIMURIUM, Strain/Indicator: TA100, Metabolic Activation: RAT, LIVER, MICROSOMES AND G6PDH, PCB, Method: PREINCUBATION): active; positive
- mutagenic call (Test System: AMES SALMONELLA TYPHIMURIUM, Strain/Indicator: TA100, Metabolic Activation: RAT, LIVER, MICROSOMES, PCB, Method: PREINCUBATION): active; positive
- mutagenic call (Test System: AMES SALMONELLA TYPHIMURIUM, Strain/Indicator: TA100, Metabolic Activation: RAT, LIVER, S-9 (HEATED), PCB, Method: PREINCUBATION): inactive; negative
- mutagenic call (Test System: AMES SALMONELLA TYPHIMURIUM, Strain/Indicator: TA100, Metabolic Activation: RAT, LIVER, S-9, 3-METHYLCHOLANTHRENE, Method: PREINCUBATION): active; positive
- mutagenic call (Test System: AMES SALMONELLA TYPHIMURIUM, Strain/Indicator: TA100, Metabolic Activation: RAT, LIVER, S-9, PCB, Method: PREINCUBATION): active; positive
- mutagenic call (Test System: AMES SALMONELLA TYPHIMURIUM, Strain/Indicator: TA100, Metabolic Activation: RAT, LIVER, S-9, PHENOBARBITAL, Method: PREINCUBATION): active; positive
- mutagenic call (Test System: AMES SALMONELLA TYPHIMURIUM, Strain/Indicator: TA100, Metabolic Activation: RAT, LIVER, S-9, Method: PREINCUBATION): active; positive
- mutagenic call (Test System: AMES SALMONELLA TYPHIMURIUM, Strain/Indicator: TA100, Metabolic Activation: RAT, LIVER, S-9 WITHOUT NADP+, PCB, Method: PREINCUBATION): inactive; negative
- mutagenic call (Test System: AMES SALMONELLA TYPHIMURIUM, Strain/Indicator: TA100, Method: PREINCUBATION): active; positive
- mutagenic call (Test System: CHINESE HAMSTER V-79, Strain/Indicator: V-79/OUABAIN, Metabolic Activation: HAMSTER, HEPATOCYTES, Method: CELL-MEDIATED): active; positive

SMILES: N#[N+]c1cccc2c1C(=O)c1ccccc1C2=O
- mutagenic call (Test System: AMES SALMONELLA TYPHIMURIUM, Strain/Indicator: TA98, Metabolic Activation: NONE, Method: STANDARD PLATE): inactive; negative
- mutagenic call (Test System: AMES SALMONELLA TYPHIMURIUM, Strain/Indicator: TA98, Metabolic Activation: RAT, LIVER, S-9, AROCLOR 1254, Method: STANDARD PLATE): active; positive
- mutagenic call (Test System: AMES SALMONELLA TYPHIMURIUM, Strain/Indicator: TA100, Metabolic Activation: NONE, Method: STANDARD PLATE): inactive; negative
- mutagenic call (Test System: AMES SALMONELLA TYPHIMURIUM, Strain/Indicator: TA100, Metabolic Activation: RAT, LIVER, S-9, AROCLOR 1254, Method: STANDARD PLATE): active; positive
- mutagenic call (Test System: AMES SALMONELLA TYPHIMURIUM, Strain/Indicator: TA1535, Metabolic Activation: NONE, Method: STANDARD PLATE): inactive; negative
- mutagenic call (Test System: AMES SALMONELLA TYPHIMURIUM, Strain/Indicator: TA1537, Metabolic Activation: NONE, Method: STANDARD PLATE): active; positive
- mutagenic call (Test System: AMES SALMONELLA TYPHIMURIUM, Strain/Indicator: TA1537, Metabolic Activation: RAT, LIVER, S-9, AROCLOR 1254, Method: STANDARD PLATE): active; positive

SMILES: O[C@@H]1[C@@H]2O[C@@H]2c2cc3c(ccc4ccccc43)cc2[C@H]1O
- mutagenic call (Test System: CHINESE HAMSTER V-79, Strain/Indicator: V-79/8-AZAGUANINE, Metabolic Activation: NONE, Method: STANDARD PLATE): active; positive
